Data taken from ChEMBL document CHEMBL3991601, “The target landscape of clinical kinase drugs” (Science, 2017).
The source made the active and inactive calls.

Experiments:
[1] = biological target: T1, Peroxisomal acyl-coenzyme A oxidase 1 (Homo sapiens, UniProt Q15067)
T1 sequence (Q15067 whole entry): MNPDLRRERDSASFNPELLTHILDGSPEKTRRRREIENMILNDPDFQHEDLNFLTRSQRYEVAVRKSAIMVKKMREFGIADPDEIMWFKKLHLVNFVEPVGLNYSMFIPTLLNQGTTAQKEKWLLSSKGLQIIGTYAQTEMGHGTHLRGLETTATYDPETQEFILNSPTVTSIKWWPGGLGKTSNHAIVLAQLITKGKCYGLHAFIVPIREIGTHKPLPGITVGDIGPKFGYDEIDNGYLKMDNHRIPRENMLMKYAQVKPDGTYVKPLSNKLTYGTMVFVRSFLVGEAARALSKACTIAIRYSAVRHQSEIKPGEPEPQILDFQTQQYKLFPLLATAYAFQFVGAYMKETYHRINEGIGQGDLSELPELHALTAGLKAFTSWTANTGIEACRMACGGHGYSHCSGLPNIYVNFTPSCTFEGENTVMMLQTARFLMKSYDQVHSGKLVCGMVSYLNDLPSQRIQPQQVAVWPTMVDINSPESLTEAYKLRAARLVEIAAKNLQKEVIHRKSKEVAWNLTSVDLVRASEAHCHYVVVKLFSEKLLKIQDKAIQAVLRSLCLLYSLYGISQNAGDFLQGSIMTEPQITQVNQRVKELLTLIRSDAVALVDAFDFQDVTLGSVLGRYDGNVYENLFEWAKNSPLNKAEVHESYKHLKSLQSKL

[2] = biological target: Tyrosine-protein kinase CSK (Homo sapiens, UniProt P41240)
Tyrosine-protein kinase CSK, sequence (P41240 whole entry): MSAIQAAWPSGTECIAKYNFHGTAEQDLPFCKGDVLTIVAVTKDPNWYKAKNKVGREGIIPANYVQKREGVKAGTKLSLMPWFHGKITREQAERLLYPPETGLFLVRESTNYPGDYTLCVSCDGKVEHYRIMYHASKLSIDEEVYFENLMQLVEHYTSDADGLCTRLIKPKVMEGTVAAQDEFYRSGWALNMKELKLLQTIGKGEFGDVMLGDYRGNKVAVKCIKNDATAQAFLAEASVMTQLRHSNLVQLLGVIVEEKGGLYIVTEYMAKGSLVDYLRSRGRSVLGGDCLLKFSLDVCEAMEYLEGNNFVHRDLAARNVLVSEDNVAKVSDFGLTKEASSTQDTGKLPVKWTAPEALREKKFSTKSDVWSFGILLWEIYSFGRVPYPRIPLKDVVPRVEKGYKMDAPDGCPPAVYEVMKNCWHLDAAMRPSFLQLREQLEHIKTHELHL

[3] = biological target: T2, Dual specificity mitogen-activated protein kinase kinase 6 (Homo sapiens, UniProt P52564)
T2 sequence (P52564 whole entry): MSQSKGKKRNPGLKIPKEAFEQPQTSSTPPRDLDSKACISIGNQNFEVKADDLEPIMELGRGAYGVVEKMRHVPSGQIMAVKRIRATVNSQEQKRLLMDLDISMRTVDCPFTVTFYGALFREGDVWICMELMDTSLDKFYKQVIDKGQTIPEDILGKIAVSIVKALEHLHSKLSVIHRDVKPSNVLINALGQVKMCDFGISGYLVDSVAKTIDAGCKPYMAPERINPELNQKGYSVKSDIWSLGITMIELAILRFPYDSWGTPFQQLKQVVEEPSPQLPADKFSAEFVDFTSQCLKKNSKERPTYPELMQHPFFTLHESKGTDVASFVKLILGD

[4] = biological target: T3, Breakpoint cluster region protein (Homo sapiens, UniProt P11274)
T3 sequence (P11274 whole entry): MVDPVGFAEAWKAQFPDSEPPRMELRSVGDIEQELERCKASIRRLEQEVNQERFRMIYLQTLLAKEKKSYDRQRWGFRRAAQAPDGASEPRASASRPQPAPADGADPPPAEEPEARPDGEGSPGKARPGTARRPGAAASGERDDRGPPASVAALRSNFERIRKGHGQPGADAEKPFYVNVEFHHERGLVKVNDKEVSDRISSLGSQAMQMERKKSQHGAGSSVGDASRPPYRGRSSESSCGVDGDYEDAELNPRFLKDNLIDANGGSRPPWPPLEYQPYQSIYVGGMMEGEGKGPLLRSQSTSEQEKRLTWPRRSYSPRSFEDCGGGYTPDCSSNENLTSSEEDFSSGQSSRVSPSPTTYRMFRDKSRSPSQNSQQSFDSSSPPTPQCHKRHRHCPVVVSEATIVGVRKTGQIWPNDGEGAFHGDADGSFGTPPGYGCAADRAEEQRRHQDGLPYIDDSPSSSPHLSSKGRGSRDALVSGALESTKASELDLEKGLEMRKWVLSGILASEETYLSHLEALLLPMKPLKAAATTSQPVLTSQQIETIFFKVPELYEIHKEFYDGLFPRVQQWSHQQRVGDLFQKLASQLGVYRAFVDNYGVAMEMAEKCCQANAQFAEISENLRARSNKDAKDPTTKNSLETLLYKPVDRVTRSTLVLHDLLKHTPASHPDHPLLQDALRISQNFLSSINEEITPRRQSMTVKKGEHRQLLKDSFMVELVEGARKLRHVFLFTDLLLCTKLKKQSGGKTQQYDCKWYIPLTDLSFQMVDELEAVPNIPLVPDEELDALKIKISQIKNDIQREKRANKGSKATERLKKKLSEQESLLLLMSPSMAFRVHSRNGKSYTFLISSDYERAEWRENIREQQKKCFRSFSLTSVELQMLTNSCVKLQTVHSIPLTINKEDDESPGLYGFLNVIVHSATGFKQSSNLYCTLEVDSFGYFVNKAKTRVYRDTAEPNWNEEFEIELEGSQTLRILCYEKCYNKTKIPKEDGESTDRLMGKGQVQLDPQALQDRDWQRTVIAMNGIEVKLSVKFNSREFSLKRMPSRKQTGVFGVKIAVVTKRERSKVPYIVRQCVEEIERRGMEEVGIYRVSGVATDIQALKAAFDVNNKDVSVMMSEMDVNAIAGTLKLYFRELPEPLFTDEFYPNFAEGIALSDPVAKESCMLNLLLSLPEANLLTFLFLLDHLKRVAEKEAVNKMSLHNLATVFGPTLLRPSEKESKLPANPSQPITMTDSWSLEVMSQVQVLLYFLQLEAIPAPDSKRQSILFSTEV
Further: in the data inactive means no Kd found up to 30 µM.

C[C@@H](Oc1cc(C(=O)Nc2ccc(C(=O)N3CCN(C)CC3)cc2)nnc1N)c1c(Cl)ccc(F)c1Cl
Kd [1]: > 30 µM (inactive) | Kd [2]: > 30 µM (inactive) | Kd [3]: > 30 µM (inactive) | Kd [4]: > 30 µM (inactive)

C[C@H]1CNCCCN1S(=O)(=O)c1cccc2cncc(F)c12
Kd [1]: > 30 µM (inactive) | Kd [2]: > 30 µM (inactive) | Kd [3]: > 30 µM (inactive) | Kd [4]: > 30 µM (inactive)

CC(=O)c1cnc2ccc(-c3cc(Cl)c(O)c(Cl)c3)nc2c1N[C@H]1CC[C@H](CN(C)C)CC1
Kd [2]: > 30 µM (inactive) | Kd [3]: 4.56 µM (active) | Kd [4]: 0.014 µM (active)

CCNC(=O)C#Cc1ccc2c(c1)NC(=O)/C2=C(\Nc1ccc(CN(C)C)cc1)c1ccccc1
Kd [1]: > 30 µM (inactive) | Kd [2]: > 30 µM (inactive) | Kd [3]: > 30 µM (inactive) | Kd [4]: > 30 µM (inactive)

C=CC(=O)N1CCC[C@H](n2c(=O)n(-c3ccc(Oc4ccccc4)cc3)c3c(N)ncnc32)C1
Kd [2]: 0.007 µM | Kd [3]: > 30 µM (inactive) | Kd [4]: > 30 µM (inactive)

Cc1nc2cc(-c3nn(C(C)C)c4ncnc(N)c34)ccc2o1
Kd [1]: > 30 µM (inactive) | Kd [2]: > 30 µM (inactive) | Kd [3]: > 30 µM (inactive) | Kd [4]: > 30 µM (inactive)

COCc1c(-c2ccc(NC(=O)Nc3cc(C(F)(F)F)ccc3F)c(F)c2)c2c(N)ncnn2c1CN1CCOCC1
Kd [1]: > 30 µM (inactive) | Kd [2]: > 30 µM (inactive) | Kd [3]: > 30 µM (inactive) | Kd [4]: 4.21 µM (active)

Nc1ncnc2c1c(-c1cccc(OCc3ccccc3)c1)cn2[C@H]1C[C@@H](CN2CCC2)C1 [AEW-541]
Kd [2]: > 30 µM (inactive) | Kd [3]: > 30 µM (inactive) | Kd [4]: > 30 µM (inactive)

COc1cc(Nc2ncc3c(n2)-c2ccc(Cl)cc2C(c2c(F)cccc2OC)=NC3)ccc1C(=O)O [ALISERTIB]
Kd [1]: > 30 µM (inactive) | Kd [2]: > 30 µM (inactive) | Kd [3]: > 30 µM (inactive) | Kd [4]: > 30 µM (inactive)

Cc1nc(NC(=O)N2CCC[C@H]2C(N)=O)sc1-c1ccnc(C(C)(C)C(F)(F)F)c1 [ALPELISIB]
Kd [1]: > 30 µM (inactive) | Kd [2]: > 30 µM (inactive) | Kd [3]: > 30 µM (inactive) | Kd [4]: > 30 µM (inactive)

Cc1csc(-c2nnc(Nc3ccc(Oc4ncccc4-c4ccnc(N)n4)cc3)c3ccccc23)c1 [AMG-900]
Kd [1]: > 30 µM (inactive) | Kd [2]: > 30 µM (inactive) | Kd [3]: > 30 µM (inactive) | Kd [4]: 1.97 µM (active)

O=C(Nc1c[nH]nc1-c1nc2cc(CN3CCOCC3)ccc2[nH]1)NC1CC1 [AT-9283]
Kd [1]: > 30 µM (inactive) | Kd [3]: 3.54 µM (active) | Kd [4]: 0.156 µM (active)

C=CC(=O)Nc1cc2c(Nc3ccc(F)c(Cl)c3)ncnc2cc1C#CC(C)(C)N1CCN(C)CC1 [AV-412 FREE BASE]
Kd [1]: > 30 µM (inactive) | Kd [2]: > 30 µM (inactive) | Kd [3]: > 30 µM (inactive) | Kd [4]: > 30 µM (inactive)

CNC(=O)c1ccccc1Sc1ccc2c(/C=C/c3ccccn3)n[nH]c2c1 [AXITINIB]
Kd [1]: > 30 µM (inactive) | Kd [4]: 0.188 µM (active)

COc1cc([C@@H]2c3cc4c(cc3[C@H](O)[C@H]3COC(=O)[C@@H]23)OCO4)cc(OC)c1OC [AXL-1717]
Kd [1]: > 30 µM (inactive) | Kd [2]: > 30 µM (inactive) | Kd [3]: > 30 µM (inactive) | Kd [4]: > 30 µM (inactive)

NC(=O)Nc1cc(-c2cccc(F)c2)sc1C(=O)N[C@H]1CCCNC1 [AZD-7762]
Kd [1]: > 30 µM (inactive) | Kd [3]: > 30 µM (inactive)

Cc1cc(C(=O)NOCCO)c(Nc2ccc(I)cc2F)n(C)c1=O [AZD-8330]
Kd [2]: > 30 µM (inactive) | Kd [3]: > 30 µM (inactive) | Kd [4]: > 30 µM (inactive)

Cn1cnc2c(F)c(Nc3ccc(Br)cc3F)c(C(=O)NOCCO)cc21 [BINIMETINIB]
Kd [1]: > 30 µM (inactive) | Kd [2]: > 30 µM (inactive) | Kd [3]: > 30 µM (inactive) | Kd [4]: > 30 µM (inactive)

COc1cc2ncnc(Oc3cccc(NC(=O)Nc4cc(C(C)(C)C(F)(F)F)on4)c3)c2cc1OC [CEP-32496]
Kd [2]: > 30 µM (inactive) | Kd [3]: > 30 µM (inactive) | Kd [4]: 0.041 µM (active)

COCC(=O)NC/C=C/c1ccc2ncnc(Nc3ccc(Oc4ccc(C)nc4)c(C)c3)c2c1 [CP-724714]
Kd [2]: > 30 µM (inactive) | Kd [3]: > 30 µM (inactive) | Kd [4]: > 30 µM (inactive)

Cn1cc(C2=C(c3cn(C4CCN(Cc5ccccn5)CC4)c4ccccc34)C(=O)NC2=O)c2ccccc21 [ENZASTAURIN]
Kd [4]: > 30 µM (inactive)

Cc1nc2cc(-n3ncc(C(=O)c4cc5ccccc5[nH]4)c3N)ccc2[nH]1 [FGFR INHIBITOR DEBIO 1347]
Kd [2]: > 30 µM (inactive) | Kd [3]: > 30 µM (inactive) | Kd [4]: > 30 µM (inactive)

C[C@@H](Oc1cc(-n2cnc3ccc(CN4CCN(C)CC4)cc32)sc1C(N)=O)c1ccccc1C(F)(F)F [GSK-461364]
Kd [1]: > 30 µM (inactive) | Kd [4]: > 30 µM (inactive)

COc1ccc(S(=O)(=O)N(C(C)=O)c2ccccc2/C=C/c2cc[n+]([O-])cc2)cc1 [HMN-214]
Kd [2]: > 30 µM (inactive) | Kd [3]: > 30 µM (inactive) | Kd [4]: > 30 µM (inactive)

NC1(c2ccc(-c3nc4ccn5c(=O)[nH]nc5c4cc3-c3ccccc3)cc2)CCC1 [MK-2206]
Kd [2]: > 30 µM (inactive) | Kd [3]: > 30 µM (inactive) | Kd [4]: > 30 µM (inactive)

COc1ncc(-c2ccc3nccc(-c4ccnnc4)c3c2)cc1NS(=O)(=O)c1ccc(F)cc1F [OMIPALISIB]
Kd [2]: > 30 µM (inactive) | Kd [3]: > 30 µM (inactive) | Kd [4]: > 30 µM (inactive)

Cc1nc(Nc2n[nH]c3c2CN(C(=O)N[C@H](CN(C)C)c2ccccc2)C3(C)C)c2sccc2n1 [PF-03758309]
Kd [2]: > 30 µM (inactive) | Kd [3]: > 30 µM (inactive) | Kd [4]: 1.28 µM (active)

CO[C@H]1C[C@@H]2CC[C@@H](C)[C@@](O)(O2)C(=O)C(=O)N2CCCC[C@H]2C(=O)O[C@H]([C@H](C)C[C@@H]2CC[C@@H](OP(C)(C)=O)[C@H](OC)C2)CC(=O)[C@H](C)/C=C(\C)[C@@H](O)[C@@H](OC)C(=O)[C@H](C)C[C@H](C)/C=C/C=C/C=C/1C [RIDAFOROLIMUS]
Kd [2]: > 30 µM (inactive) | Kd [3]: > 30 µM (inactive) | Kd [4]: > 30 µM (inactive)

O=C(NOCCO)c1cc(CN2OCCCC2=O)c(F)c(F)c1Nc1ccc(I)cc1F [RO-4987655]
Kd [4]: > 30 µM (inactive)

N#CC[C@H](C1CCCC1)n1cc(-c2ncnc3[nH]ccc23)cn1 [RUXOLITINIB]
Kd [1]: > 30 µM (inactive) | Kd [4]: > 30 µM (inactive)

O=C1NC(=O)[C@@H](c2cn3c4c(cccc24)CCC3)[C@@H]1c1c[nH]c2ccccc12 [TIVANTINIB]
Kd [2]: > 30 µM (inactive) | Kd [3]: > 30 µM (inactive) | Kd [4]: > 30 µM (inactive)

C[C@@H](NC(=O)c1ncnc(N)c1Cl)c1ncc(C(=O)Nc2cc(C(F)(F)F)c(Cl)cn2)s1 [TOVORAFENIB]
Kd [2]: > 30 µM (inactive) | Kd [3]: > 30 µM (inactive) | Kd [4]: 0.296 µM (active)

Cc1cc(Nc2ncnc3ccc(NC4=NC(C)(C)CO4)cc23)ccc1Oc1ccn2ncnc2c1 [TUCATINIB]
Kd [2]: > 30 µM (inactive) | Kd [3]: > 30 µM (inactive) | Kd [4]: > 30 µM (inactive)
